# Measured values: patent publication US10077309B2, “Compositions and methods for targeting of the surfactant protein A receptor” (The Penn State Research Foundation, priority 2014, dated 2018)
# System: IAV infection of macrophages / influenza binding to SP-R210
# Format: cell-based, influenza A virus
substance,measurement,setting,value
SP-A: human surfactant protein A isolated from therapeutic lung lavage of alveolar proteinosis patients,competition with influenza virus for binding to the receptor SP-R210,,competitively inhibits binding of the influenza virus to the receptor
desialylated SP-A: desialylated surfactant protein A,competition with influenza virus for binding to the receptor SP-R210,,compete for influenza binding to the same receptor
same,block of infection of macrophages with IAV,flow cytometry,blocks infection of macrophages with IAV
